The subject of series [1] is pigweed (Amaranthus retroflexus). The series can be described thus: Test A postemergence. The series is classed as in vivo. The conditions noted are these: Amaranthus retroflexus, post-emergence, 240 h; for pest or weed control at 125 g/ha: 125 g ai/ha; for pest or weed control at 500 g/ha: 500 g ai/ha, 0 to 100 scale, 0 is no effect, 100 is complete control. The method, boiled down:
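In a loam soil and sand blend, planted seeds got a preemergence directed soil spray, and young plants at the one- to two-leaf stage, 2–10 cm high, got a postemergence application; ~10 d greenhouse hold; injury rated visually, 0 = none, 100 = complete control.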

The subject of series [2] is barnyardgrass (Echinochloa crus-galli). Kind of series: Test B flooded paddy test. The format is in vivo. The conditions noted are these: Echinochloa crus-galli, Flood, 250 g ai/ha, read-out: Barnyardgrass plant response rating. An outline of the steps: (§1)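 Greenhouse paddy pots with 2-leaf stage plants received compound by direct addition to floodwater 3 cm deep, kept at that level. Scored visually at 13–15 d versus controls (0 no effect; 100 complete control).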

Series [3] has as its system ducksalad (Heteranthera limosa). The series can be described thus: Test B flooded paddy test. The conditions noted are these: Heteranthera limosa, Flood, 250 g ai/ha, read-out: Ducksalad plant response rating. The series is classed as in vivo. The method, boiled down: as §1
A further series relates to rice (Oryra sativa). Kind of series: Test B flooded paddy test. The series is classed as in vivo. The conditions noted are these: Oryza sativa, Flood, 250 g ai/ha, read-out: Rice plant response rating. An outline of the steps:
as §1

In series [4] the test system is sedge, umbrella (small-flower umbrella sedge, Cyperus difformis). Kind of series: Test B flooded paddy test. The series is classed as in vivo. As to conditions: Cyperus difformis, Flood, 250 g ai/ha, read-out: Sedge, Umbrella plant response rating. An outline of the steps: as §1
[5] abbreviates: Postemergence, visual injury after approximately 10 d, 0 to 100 scale where 0 is no effect and 100 is complete control, read-out: Plant response rating, Pigweed.
Where [6] appears, read: scale of 0 to 100 where 0 is no effect and 100 is complete control.
The mark [7] stands for this setting: postemergence, visual injury rating after approximately 10 d, read-out: Pigweed plant response rating (0 to 100 scale, 0 no effect, 100 complete control).
Setting [8] is: postemergence, visual injury on 0 to 100 scale (0 no effect, 100 complete control), approx. 10 d, read-out: Pigweed plant response rating.
Where [9] appears, read: postemergence, read-out: Pigweed plant response rating.
Setting [10] is: 0 to 100 scale where 0 is no effect and 100 is complete control.

Like-named read-outs stand apart in the source and are kept apart here.

Usually melting point stands for the temperature, or range, at which the solid turns liquid. Compound `O=C1NC[C@H](c2cc(C(F)(F)F)ccn2)[C@H]1C(=O)Nc1ccccc1F` [Compound 948] had a melting point of 115 to 119 °C. In series [1] (setting [5]), the pest or weed control at 125 g/ha was determined as 0%. For the same compound, the pest or weed control at 250 g/ha in series [2] (setting [6]) was 0%. Also, the pest or weed control at 250 g/ha in series [3] (setting [6]) came to 0%. Besides, the pest or weed control at 250 g/ha in the series with rice (Oryra sativa) (setting [6]) was determined as 0%. For the same compound, the pest or weed control at 250 g/ha in series [4] (setting [6]) stood at 0%.

As to `CCc1cc([C@H]2CNC(=O)[C@@H]2C(=O)Nc2ccccc2F)cs1` [Compound 913], the melting point was in the range of 96 to 100 °C. Further, the pest or weed control at 125 g/ha in series [1] (setting [7]) amounted to 0%. In addition, the pest or weed control at 250 g/ha in series [2] (setting [6]) is 0%. The pest or weed control at 250 g/ha in series [3] (setting [6]) came out at 90%. The pest or weed control at 250 g/ha in the series with rice (Oryra sativa) (setting [6]) turned out to be 0%. Also, the pest or weed control at 250 g/ha in series [4] (setting [6]) is 0%.

`O=C1NC[C@H](c2ccc(F)c(OC(F)(F)C(F)(F)Br)c2)[C@H]1C(=O)Nc1ccccc1F` [Compound 1134] registered a melting point of 133 to 137 °C. The pest or weed control at 125 g/ha in series [1] (setting [8]) came out at 0%. For the same compound, in series [1] (setting [9]), the pest or weed control at 500 g/ha amounted to 20%. For the same compound, in series [2] (setting [10]), the pest or weed control at 250 g/ha came to 0%. Moreover, the pest or weed control at 250 g/ha in series [3] (setting [10]) is 0%. Also, the pest or weed control at 250 g/ha with rice (Oryra sativa) (setting [10]) was found to be 0%. Besides, the pest or weed control at 250 g/ha in series [4] (setting [10]) came to 0%.

For the compound `COc1cccc(C2CN(C)C(=O)C2C(=O)Nc2cccc(F)c2F)c1` (centres unmarked) [Compound 886], the melting point was in the range of 137 to 140 °C. Also, the pest or weed control at 125 g/ha in series [1] (setting [7]) came to 0%. Moreover, the pest or weed control at 250 g/ha in series [2] (setting [6]) came out at 75%. For the same compound, in series [3] (setting [6]), the pest or weed control at 250 g/ha worked out at 50%. For the same compound, the pest or weed control at 250 g/ha with rice (Oryra sativa) (setting [6]) is 0%. Besides, the pest or weed control at 250 g/ha in series [4] (setting [6]) was determined as 0%.

`CN1CC(c2cccc(Br)c2)C(C(=O)Nc2ccccc2F)C1=O` (centres unmarked) [Compound 1132]: the melting point fell in the range of 142 to 146 °C. For the same compound, the pest or weed control at 125 g/ha in series [1] (setting [8]) is 0%. Also, the pest or weed control at 500 g/ha in series [1] (setting [9]) is 0%. Moreover, in series [2] (setting [10]), the pest or weed control at 250 g/ha was determined as 60%. The pest or weed control at 250 g/ha in series [3] (setting [10]) worked out at 90%. The pest or weed control at 250 g/ha in the series with rice (Oryra sativa) (setting [10]) was 15%. Moreover, in series [4] (setting [10]), the pest or weed control at 250 g/ha is 40%.

Compound `Cc1ccc([C@H]2CCNC(=O)[C@@H]2C(=O)Nc2cccc(F)c2F)cc1` [Compound 973] returned a melting point of 174 to 176 °C. For the same compound, in series [1] (setting [5]), the pest or weed control at 125 g/ha is 0%. In series [2] (setting [6]), the pest or weed control at 250 g/ha was determined as 0%. Besides, the pest or weed control at 250 g/ha in series [3] (setting [6]) was determined as 100%. Moreover, in the series with rice (Oryra sativa) (setting [6]), the pest or weed control at 250 g/ha came out at 0%. In addition, the pest or weed control at 250 g/ha in series [4] (setting [6]) was determined as 0%.

For `CN1C[C@H](c2ccc(F)c(F)c2)[C@@H](C(=S)Nc2ccccc2F)C1=O` (racemic) [Compound 1153], the pest or weed control at 125 g/ha in series [1] (postemergence, visual injury vs untreated controls after approx. 10 d, 0 = no effect, 100 = complete control, read-out: Pigweed plant response rating (0 to 100 scale)) was found to be 0%. The pest or weed control at 500 g/ha in series [1] (setting [9]) is 0%. Also, the pest or weed control at 250 g/ha is 30% in series [2] (setting [10]), 70% in series [3] (setting [10]), 0% in the series with rice (Oryra sativa) (setting [10]) and 0% in series [4] (setting [10]).

These data come from patent US12077503B2, “Substituted cyclic amides and their use as herbicides” (FMC CORPORATION, priority 2015, dated 2024).
